Measurements: US10857155B2, “Compounds targeting proteins, compositions, methods, and uses thereof” (BioTheryX, Inc., priority 2017, dated 2020)

Experiments:
Assay type in all cases: cell-based
IL-2 = IL-2 in PBMCs on anti-human CD3 (OKT3) coated plates, Mesoscale analysis; settings: PBMC, 24 h, relative to DMSO control, read-out: Fold Change IL-2
Experimental: For the IL-2 analysis, 96 well plates were precoated with 1 μg/mL anti-human CD3 antibody (OKT3, eBioscience Inc., San Diego, Calif.). After washing with PBS, compounds were added (50 μL/well) followed by PBMCs diluted at 3-4 million cells/mL (150 μL/well). Plates were incubated for 24 h and the supernatants collected for Mesoscale IL-2 analysis.
(§1) Compound activity is measured as fold difference from the DMSO control. Compounds 1, 2, and 3 each reduced expression of IL-1-b in LPS-stimulated PBMCs by over 80% at 1 uM, relative to a just under 80% reduction with pomalidomide at 10 μM (FIG. 2).

Molm-13 cells = experiment: Cell viability assay (CellTiter-Glo), Molm-13 cells; settings: for IC50 / effect on cell viability: Molm-13 cells; for IC50: approximate; for viability at 0.6 µM: MOLM-13, 0.6 μM; for viability at 10 µM: MOLM-13, 10 μM
Experimental: FIG. 5 represents antiproliferative activity in Molm-13 cells. The cells were incubated with Compound 1, 2, or 3 (at the indicated concentration), DMSO, or pomalidomide. Compound activity was measured based on the signal from remaining viable cells.
(§2) Molm-13 cells were cultivated in RPMI-1640 (10% FBS/1% pen-strep) and were plated in white walled 96-well plates at 20,000 cells/well. H1048 cells were cultured in DMEM:F12 media supplemented with 5% fetal bovine serum, insulin, transferrin, sodium selenite, hydrocortisone, estradiol, penicillin and streptomycin, and were plated in white walled 96-well plates at 20,000 cells/well.
(§3) Cells were treated with compound at the indicated concentration or DMSO (control) and the cultures were incubated for 3 days at 37° C. and 5% CO2. Following the incubation period, 100 μL of CellTiterGlow (CTG) reagent (CellTiter-Glo® Luminescent Cell Viability Assay, Promega (Madison, Wis.)) was added to each well. Following a 10 min incubation with shaking, luminescence was measured using a Victor Wallac Luminometer.

IL-6 = IL-6 in LPS-induced PBMCs / CD14+ monocytes, Meso Scale assay
Experimental: (§4) FIG. 3 represents the activity against IL-6 in CD14, monocytes, plated in 96 well plates and pretreated with Compounds 1, 2, or 3, or pomalidomide, for 1 h and then induced with 100 ng/mL LPS for 18-24 h. Cytokines were measured according to MesoScale protocol. Negative control wells were treated with DMSO. Cells were treated with compound (at the indicated concentrations) or 10 μM pomalidomide. Compound activity was measured as a percentage of LPS-induced activity.
(§5) Either frozen primary blood mononuclear cells (PBMCs) or frozen CD14+ mobilized peripheral blood monocytes were purchased from AllCells (PB003F, Normal Peripheral Blood MNC (Alameda, Calif.)). Cells were quick thawed, washed 1-time with RPMI-1640 (10% FBS/1% Pen-Strep) and plated in 96 well plates at 200,000 cells per well. Cells were pretreated with DMSO only, pomalidomide or the indicated compounds for 1 h and then induced with 100 ng/mL lipopolysaccharide (LPS) for 18-24 h. The supernatant was analyzed for IL-1 beta, IL-6, and TNF-alpha, using Meso Scale assay according to manufacturer's protocol. The negative control wells were treated with DMSO.
as §1

GSPT1 = molecular target: T1, GSPT1 (Homo sapiens, UniProt P15170); experiment: Western blot analysis of GSPT1 protein levels in Jurkat cells; settings: DMSO = 100.00; for GSPT1 protein level (% of DMSO control) at 0.1 µM: 100 nM compound; for GSPT1 protein level (% of DMSO control) at 1 µM: 1 uM compound
T1 construct: Whole cell extract was prepared with RIPA buffer according to manufacturer's protocol; endogenous in cells; host or cells: Jurkat cells
Experimental: FIG. 1 represents the activity against CK1α, ikaros, and GPST1 in Jurkat cells, plated in 96 well plates. Cells were pretreated with compounds for 4 h and then lysed and protein levels measure via Western blots. The negative control wells were treated with DMSO. Cells were treated with the indicated compound at the indicated concentration. Compound activity is measured as a decrease in GSPT1 protein levels.
Western Blot Protocol: Cell lines were grown in RPMI 1640 supplemented with streptomycin, penicillin and 10% fetal bovine serum.
Jurkat cells were cultured at approximately 10^6 cells per mL, DMSO or the indicated compound was added to the cells and allowed to incubate for 6-8 h. Whole cell extract was prepared with RIPA buffer according to manufacturer's protocol (Pierce (Dallas, Tex.)). Briefly, ˜2×10^6 cells were washed once in PBS, the cell pellet was resuspended in RIPA buffer and allowed to incubate for 15 min on ice. Cell debris was removed by centrifugation and the cleared whole cell lysate was transferred to a new tube for further analysis.
For western blot analysis, whole cell extracts were separated on 4-12% SDS-polyacrylamide gels, transferred to nitrocellulose and probed with the indicated primary antibodies. Membranes were subsequently washed and probed with the appropriate horseradish peroxidase (HRP)-conjugated secondary antibody. Membranes were subsequently washed and probed with the appropriate IRDye secondary antibodies (LI-COR). The signal was detected using the Odyssey Imaging System (LI-COR).

IL-1β = experiment: IL-1 beta in LPS-induced PBMCs / CD14+ monocytes, Meso Scale assay
Experimental: as §4, with “FIG. 2” for “FIG. 3”, “against IL-1-beta” for “against IL-6”, “in CD14” for “in CD14,”, “DMSO.” for “DMSO. Cells were treated with compound (at the indicated concentrations) or 10 μM pomalidomide.”
as §5, §1

H1048 cells = experiment: Cell viability assay (CellTiter-Glo), H1048 cells; settings: Homo sapiens, NCI-H1048, 72 h, 3 days; for viability at 1 µM: H1048, 1 μM; for viability at 10 µM: H1048, 10 μM
Experimental: as §2, §3

TNF-α = experiment: TNF-alpha in LPS-induced PBMCs / CD14+ monocytes, Meso Scale assay
Experimental: as §4, with “FIG. 4” for “FIG. 3”, “against TNF-alpha” for “against IL-6”, “protocol. The negative” for “protocol. Negative”
as §5, §1

T1 sequence (P15170 whole entry): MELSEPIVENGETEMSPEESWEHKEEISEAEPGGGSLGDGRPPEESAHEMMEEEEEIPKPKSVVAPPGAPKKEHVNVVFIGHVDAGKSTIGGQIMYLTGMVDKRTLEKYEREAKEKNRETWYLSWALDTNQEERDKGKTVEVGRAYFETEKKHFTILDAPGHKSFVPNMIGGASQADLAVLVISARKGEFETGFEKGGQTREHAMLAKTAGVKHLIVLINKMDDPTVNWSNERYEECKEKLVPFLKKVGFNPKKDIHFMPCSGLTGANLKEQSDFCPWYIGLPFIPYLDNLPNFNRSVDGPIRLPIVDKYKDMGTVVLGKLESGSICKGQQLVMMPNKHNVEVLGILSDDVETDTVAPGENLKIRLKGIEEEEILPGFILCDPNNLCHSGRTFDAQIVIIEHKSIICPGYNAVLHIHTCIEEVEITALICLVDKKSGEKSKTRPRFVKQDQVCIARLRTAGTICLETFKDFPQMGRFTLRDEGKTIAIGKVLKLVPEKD

Compound | GSPT1 protein level (% of DMSO control) at 0.1 µM (GSPT1) [%] | GSPT1 protein level (% of DMSO control) at 1 µM (GSPT1) [%] | viability at 1 µM (H1048 cells) [%] | viability at 10 µM (H1048 cells) [%] | fold induction at 1 µM (IL-2) | inhibition at 1 µM (IL-6) [%] | inhibition at 1 µM (IL-1β) [%] | inhibition at 1 µM (TNF-α) [%] | other results
Cc1ccc(NC(=O)NCc2ccc3c(c2)CN([C@H]2CCCC(=O)NC2=O)C3=O)cc1Cl [Compound 1] | 28.6 | 3.63 | 8.39 | 3.51 | – | – | – | – | fold induction at 0.1 µM (IL-2): 1.4; viability at 0.3 µM (Molm-13 cells; Homo sapiens, 72 h, MOLM-13, 0.3 μM, 3 days): 50%; IC50 (Molm-13 cells; Homo sapiens): ~450 nM; inhibition at 0.1 µM (IL-6): 55%; inhibition at 0.1 µM (IL-1β): 70%; inhibition at 0.1 µM (TNF-α): 75%
Cc1ccc(NC(=O)NCc2ccc3c(c2)CN(C2CCCC(=O)NC2=O)C3=O)cc1 (centres unmarked) [Compound 2] | 134 | 23 | 28.3 | 4.93 | – | – | – | – | fold induction at 0.1 µM (IL-2): 1.4; viability at 0.4 µM (Molm-13 cells; Homo sapiens, 72 h, MOLM-13, 0.4 μM, 3 days): 50%; IC50 (Molm-13 cells; Homo sapiens): ~800 nM; effect on cell viability (Molm-13 cells; 1 μM (FIG. 5)): reduced cell viability; inhibition at 0.1 µM (IL-6): 51%; inhibition at 0.1 µM (IL-1β): 78%; inhibition at 0.1 µM (TNF-α): 79%
CCCNC(=O)NCc1ccc2c(c1)CN([C@H]1CCCC(=O)NC1=O)C2=O [Compound 4, (S)-1-((2-(2,7-dioxoazepan-3-yl)-1-oxoisoindolin-5-yl)methyl)-3-propylurea] | 214 | 116 | 103 | 97.5 | 1.5 | 33 | 39 | 44 | –
O=C1CCC[C@H](N2Cc3cc(CNC(=O)Nc4ccc(F)c(Cl)c4)ccc3C2=O)C(=O)N1 [Compound 6, (S)-1-(3-chloro-4-fluorophenyl)-3-((2-(2,7-dioxoazepan-3-yl)-1-oxoisoindolin-5-yl)methyl) urea] | 113 | 37.9 | 45.7 | 5.42 | 1.3 | 77 | 64 | 65 | viability at 0.7 µM (Molm-13 cells; Homo sapiens, 72 h, MOLM-13, 0.7 μM, 3 days): 50%
Cc1ccc(CC(=O)NCc2ccc3c(c2)CN([C@H]2CCCC(=O)NC2=O)C3=O)cc1Cl [Compound 7, (S)-2-(3-chloro-4-methylphenyl)-N-((2-(2,7-dioxoazepan-3-yl)-1-oxoisoindolin-5-yl)methyl)acetamide] | 83.3 | 18.5 | 44.1 | 7.25 | 1 | 73 | 56 | 59 | viability at 1 µM (Molm-13 cells; Homo sapiens, 72 h, MOLM-13, 1 μM, 3 days): 70%
Cc1ccc(CC(=O)NCc2ccc3c(c2)CN([C@H]2CCCC(=O)NC2=O)C3=O)cc1 [Compound 9, (S)—N-((2-(2,7-dioxoazepan-3-yl)-1-oxoisoindolin-5-yl)methyl)-2-(p-tolyl)acetamide] | 128 | 32.1 | 57.1 | 7.27 | 1.8 | 63 | 61 | 64 | viability at 10 µM (Molm-13 cells; Homo sapiens, 72 h, 3 days): 99%
Nc1cccc2c1C(=O)N(C1CCC(=O)NC1=O)C2=O (centres unmarked) [pomalidomide, reference compound] | – | – | – | – | – | – | – | – | effect on cell viability (Molm-13 cells; 10 μM (FIG. 5)): no effect on cellular viability; reduction of IL-6 levels (IL-6; LPS-stimulated PBMCs, 10 μM (FIG. 3)): under 60%; reduction of expression of IL-1-b (IL-1β; LPS-stimulated PBMCs, 10 μM (FIG. 2)): under 80%; reduction of expression of TNF-α (TNF-α; LPS-stimulated PBMCs, 10 μM (FIG. 4)): ~30%

Now from value to molecule, other results behind:

GSPT1 protein level (% of DMSO control) at 0.1 µM (GSPT1) [%] | GSPT1 protein level (% of DMSO control) at 1 µM (GSPT1) [%] | Compound | viability at 1 µM (H1048 cells) [%] | viability at 10 µM (H1048 cells) [%] | fold induction at 1 µM (IL-2) | inhibition at 1 µM (IL-6) [%] | inhibition at 1 µM (IL-1β) [%] | inhibition at 1 µM (TNF-α) [%] | other results
95.5 | 46.8 | O=C1CCCC(N2Cc3cc(CNC(=O)Nc4cccc(Cl)c4)ccc3C2=O)C(=O)N1 (centres unmarked) [Compound 3] | 47.1 | 6.25 | – | – | – | – | fold induction at 0.1 µM (IL-2): 1.4; viability at 0.6 µM (Molm-13 cells; Homo sapiens, 72 h, 3 days): 50%; IC50 (Molm-13 cells; Homo sapiens): ~1000 nM; effect on cell viability (Molm-13 cells; 1 μM (FIG. 5)): reduced cell viability; inhibition at 0.1 µM (IL-6): 27%; inhibition at 0.1 µM (IL-1β): 59%; inhibition at 0.1 µM (TNF-α): 59%
80.2 | 15.7 | Cc1c(Cl)cccc1NC(=O)NCc1ccc2c(c1)CN([C@H]1CCCC(=O)NC1=O)C2=O [Compound 5, (S)-1-(3-chloro-2-methylphenyl)-3-((2-(2,7-dioxoazepan-3-yl)-1-oxoisoindolin-5-yl)methyl)urea] | 27.3 | 2.36 | 1.3 | 99 | 90 | 92 | viability at 0.6 µM (Molm-13 cells; Homo sapiens, 72 h, 3 days): 50%
52.6 | 14.9 | COc1ccc(NC(=O)NCc2ccc3c(c2)CN([C@H]2CCCC(=O)NC2=O)C3=O)cc1Cl [Compound 8, (S)-1-(3-chloro-4-methoxyphenyl)-3-((2-(2,7-dioxoazepan-3-yl)-1-oxoisoindolin-5-yl)methyl)urea] | 17.4 | 4.4 | 0.9 | 95 | 78 | 84 | viability at 0.5 µM (Molm-13 cells; Homo sapiens, 72 h, MOLM-13, 0.5 μM, 3 days): 48%
– | 18.6 | O=C1CCC[C@H](N2Cc3cc(CNC(=O)Nc4ccc(C(F)(F)F)c(Cl)c4)ccc3C2=O)C(=O)N1 [Compound 12, (S)-1-(3-chloro-4-(trifluoromethyl)phenyl)-3-((2-(2,7-dioxoazepan-3-yl)-1-oxoisoindolin-5-yl)methyl)urea] | – | – | 1.5 | 90 | 75 | 59 | viability at 10 µM (Molm-13 cells; Homo sapiens, 72 h, 3 days): 11%
